Data as given in US20260265690A1, “Epithelial Stem Cells and Production and Uses thereof” (Stemson Therapeutics Corp., priority 2022, published 2026).

Legend:
Format in all cases: cell-based, human
[1] = test system: hiPSC-EPSCs; experiment: Colony formation assay (CFA) on 3T3 fibroblast feeders; conditions: small molecules added to expansion medium at passage 4; 2.5 μM CHIR99021, 1 μM DMH-1, 2.5 μM A-83-01; CFA at p7, 1K/well, 10 days
Protocol: FIGS. 2A-2D show characterization of hiPSC-EPSC in vitro. […] For CFA, different hiPSC-EPSC lines (EP61, EP112 and EP116) and control HF-KC were subcultured for 3 passages (p3) then plated on 3T3 fibroblast feeders at 1K/well and incubated for additional 10 days, then fixed and stained with Crystal violet. […] Hair follicle derived keratinocytes (HFKC) are used as reference cells. […] Ns: p>0.05; *: p<0.05; ** p<0.01; *** p<0.001; ****: p<0.0001. […] Note nuclear localization of 3-Cat, a hallmark of Wnt signaling activation in hiPSC-EPSC but not in HF-KC (arrows).
(§1) FIGS. 3A-3E show activation of Wnt signaling pathway via GSK3 inhibition enables long-term expansion of hiPSC-EPSC. […] The clonogenicity of hiPSC-EPSCs was diminishing as a result of serial passaging. […] For CFA, hiPSC-EPSCs were cultured for 7 weeks (p7) with or without small molecule inhibitors, then plated on 3T3 fibroblast feeders at 1K/well and incubated for additional 10 days, then fixed and stained with Crystal violet. The plates were scanned and analyzed using imaging software to determine the confluency. The confluency data from three experiments is summarized in the graph (right panel). […] The graph is showing the percentage of proliferating (Ki67+) hiPSC-EPSC over total nuclei (DAPI+). *: p<0.05. […] Data was analyzed using standard ddCt method and shown as mean±s.d. of the expression from three independent experiments. *: p<0.05; ****: p<0.01. […] Data are represented as a heatmap, where results from eight independent differentiation experiments were averaged and z-scores were calculated for each timepoint represented.
(§2) Despite EPSCs having substantial self-renewal capability in vivo, the prolonged expansion in vitro of EPSC isolated from various tissues has remained challenging. It is well documented that in conventional cultures, freshly isolated EPSCs rapidly lose their clonogenicity and stem cell marker expression signature. Inoue et al, Lab invest. 2009 August, 89(8):844-56; Ohyama et al., J Clin Invest. 2006 January, 116(1):249-60; Yang et al., Stem Cell Research & Therapy (2020) 11:303. […]

[2] = test system: HF organoids of hiPSC-EPSC with dermal papilla (DP) cells; experiment: 3D hair follicle organoid assay (roundness/elongation score); conditions: 2.5 μM added to EPSC and organoid culture
Protocol: FIGS. 4A-4D show in vitro functional analysis of hiPSC-EPSC in 3D tissue constructs. […] Bottom panel illustrates an organoid development process of using an example of an organoid created by combining fluorescently labeled (red) dermal papilla (DP) cells with HF-KCs. […] Measurement is obtained with CYTATION™ 5 software. Each color represents a different cell combination, and each dot represents a single organoid. The percentage of elongated organoids was increased when hiPSC-EPSC were treated with CHIR-99021. […] Neonatal foreskin-derived keratinocytes (HFK) were used as a control. […]
The stable hiPSC-EPSC with features of HF bulge EPSC described above were investigated as to whether they were receptive to specific mesenchymal stimuli and capable of creating complex multilayered tissues. […] To quantitively assess the organoids elongation and provide an indicator of hiPSC-EPSC functionality in vitro, an automated computational image-based analysis was employed that calculates the roundness of the generated 3D structures, assigning values between 1 and 0, where 1 represents a perfectly round object and 0 a long shaped one. By plotting time-lapse values of roundness score in a graph, the ability of iPSC-EPSC cells to generate elongated structure in combination with DP cells (FIG. 4C) was quantified. […]

[3] = test system: passage 4 hiPSC-EPSCs; experiment: Bulk RNA-seq of HF bulge EPSC marker expression; conditions: CHIR-99021 vs DMSO
Protocol: FIGS. 3A-3E show activation of Wnt signaling pathway via GSK3 inhibition enables long-term expansion of hiPSC-EPSC. […] The clonogenicity of hiPSC-EPSCs was diminishing as a result of serial passaging. […] For CFA, hiPSC-EPSCs were cultured for 7 weeks (p7) with or without small molecule inhibitors, then plated on 3T3 fibroblast feeders at 1K/well and incubated for additional 10 days, then fixed and stained with Crystal violet. The plates were scanned and analyzed using imaging software to determine the confluency. The confluency data from three experiments is summarized in the graph (right panel). […] Data was analyzed using standard ddCt method and shown as mean±s.d. of the expression from three independent experiments. *: p<0.05; ****: p<0.01. […] Data are represented as a heatmap, where results from eight independent differentiation experiments were averaged and z-scores were calculated for each timepoint represented.
Bulk RNA-sequencing: RNA was extracted from each sample and quantified with Qubit. cDNA libraries were generated using the NEB library kit. All libraries were then quantified, pooled, and sequenced on Illumina platforms. Reads were first analyzed by fastQC and then trimmed for low-quality bases with Trimmomatic. Clean reads were then aligned to the human reference genome (GRCh38) with Ensembl gene annotation using STAR software. […]

[4] = test system: Wnt pathway genes LEF1, TCF4, LGR6 in hiPSC-EPSC; experiment: qPCR gene expression analysis of Wnt signaling pathway genes; conditions: ddCt, hiPSC-EPSC treated with CHIR-99021
Protocol: as §1
as §2, with “invest.” for “invest. 2009 August, 89(8):844-56; Ohyama et al., J Clin Invest. 2006 January, 116(1):249-60; Yang et al., Stem Cell Research & Therapy (2020) 11:303.”

[5] = test system: hiPSC-EPSC; experiment: Ki67 immunofluorescent analysis of proliferating cells; conditions: hiPSC-EPSC treated with CHIR-99021 vs untreated cells
Protocol: as §1
Immunocytochemistry: Cells were cultured and imaged in 96 well plates. Briefly, media was aspirated, and wells rinsed once with PBS for 2 minutes. Cells were fixed with 4% formaldehyde for 10 minutes at RT, followed by two washes with PBS. […]

Row | SMILES | clonogenicity of hiPSC-EPSCs [1] | percentage of elongated organoids [2] | expression of HF bulge EPSC markers including KRT15, CD59, TP63, ITGA6, DKK3, SOX9, and NFATC1 [3] | expression of Wnt pathway genes including LEF1, TCF4, and LGR6 [4] | number of proliferating (Ki67+) cells [5]
1 | Cc1c[nH]c(-c2cnc(NCCNc3ccc(C#N)cn3)nc2-c2ccc(Cl)cc2Cl)n1 [CHIR-99021, 6-((2-((4-(2,4-Dichlorophenyl)-5-(4-methyl-1H-imidazol-2-yl)pyrimidin-2-yl)amino)ethyl)amino)nicotinonitrile] | preserved clonogenicity | increased | increased the expression | upregulation | significantly higher number of proliferating cells
2 | Cc1cccc(-c2nn(C(=S)Nc3ccccc3)cc2-c2ccnc3ccccc23)n1 [A-83-01] | not BMP or TGF-β inhibitors, preserved clonogenicity |  |  |  | 
3 | CC(C)Oc1ccc(-c2cnc3c(-c4ccnc5ccccc45)cnn3c2)cc1 [DMH-1] | not BMP or TGF-β inhibitors, preserved clonogenicity |  |  |  | 
